From paper PMC7562955 (Nature Communications, 2020)
Values joined by “and” are separate entries in the source; they are usually repeats but may differ in a detail not shown here. Equal entries are not always repeated. Where two headings read alike, the source gives them in different places.

Tests used:
[1] = test system: lupus-prone NZB/W F1 mice; assay: Efficacy study in lupus-prone NZB/W F1 mice (proteinuria, survival, kidney histopathology); assay type: in vivo; conditions: for proteinuria (urinary albumin/creatinine ratio), mean / Histological score (glomerular lesion), Mean: n = 6; for Histological score (glomerular lesion), individual mouse: 0–4 scale
Procedure: At the initiation of treatment, mice were randomly divided according to bodyweight and proteinuria level (urinary albumin/creatinine ratio over 300 mg g^−1) and were orally once or twice daily. […] During the treatment, nearly dead individuals were euthanized, then sera and kidneys were collected. In this case, the last known values for urinary protein was carried forward.
Urine protein was quantified by automatic analyzer (BioMajesty ZERO(JCA-ZS050), JEOL Ltd, Japan) with Mouse Urinary Albumin Assay Kit (S-type) (AKRAL-021S, Shibayagi Co.,Ltd., Japan). Urine creatinine levels were measured in the same samples. The urine albumin excretion rate is expressed as the ratio of albumin to creatinine. Time course of proteinuria were analyzed by Dunnett’s multiple-range test.
The both kidneys were fixed in 10% neutral-buffered formalin, embedded in paraffin, sectioned, stained with hematoxylin and eosin (HE) and periodic acid-Schiff (PAS), and examined by light microscopy. Glomerulonephritis was scored on a 0–4 scale, based on the intensity and extent of histopathological changes. A grade of 0 was given to kidney without glomerular lesions; a grade of 1 was given when there was minimal thickening of the mesangium; a grade of 2 was given when there was a noticeable increase in both mesangial and glomerular capillary cellularity; a grade of 3 was given when the preceding conditions were observed, along with superimposed inflammatory exudates and capsular adhesions; and a grade of 4 was given when the obliteration of the glomerular architecture included 70% of glomeruli. These classifications were used to grade 20 glomeruli within one area, and the mean glomerular histopathological score was calculated for each mouse. Data were analyzed by Tukey’s test.

[2] = Pharmacokinetic profiling after oral dose in NZB/W F1 mice; assay type: in vivo, mouse; conditions: for plasma Concentration, individual mouse / concentration at 3 h / concentration at 6 h / concentration at 24 h: 100 mg/kg po; for concentration at 3 h / concentration at 6 h / concentration at 24 h: female, NZB/W F1, mouse, plasma, oral, 100 mg/kg
Procedure: Cpd-7 was orally administered to 35-week-old female NZB/W F1 mice at 100 mg kg^−1 dissolved in 0.5 w/v% Methyl Cellulose 400 Solution (WAKO, Japan). Blood was collected over 24 h from the isoflurane-anesthetized mice via the jugular vein. The plasma samples were separated by centrifugation. Cpd-7 was extracted from the plasma samples by protein precipitation with methanol and measured using LC/MS/MS (HPLC: SHIMADZU CORPORATION, Japan; MS: AB Sciex Pte. Ltd., Japan). The lower limit of quantification was set at 5 ng/mL.

[3] = 100 mg kg−1 po once or twice daily, four weeks

In the case of `CCOc1nc(C)c2nc(-c3cncc(F)c3)n(Cc3ccc(CN4C[C@@H]5C[C@H]4CN5C)cc3)c2n1` [Cpd-7], the “proteinuria (urinary albumin/creatinine ratio), mean” value ([1]; 100 mg kg-1 po B.I.D, 0 wk) is reported as 1719.9, the “proteinuria (urinary albumin/creatinine ratio), mean” value ([1]; 100 mg kg-1 po B.I.D, 1 wk) is reported as 7204.5 and the “proteinuria (urinary albumin/creatinine ratio), mean” value ([1]; 100 mg kg-1 po B.I.D, 2 wk) is reported as 747.0. The “proteinuria (urinary albumin/creatinine ratio), mean” value ([1]; 100 mg kg-1 po B.I.D, 3 wk) was 150.9, the “proteinuria (urinary albumin/creatinine ratio), mean” value ([1]; 100 mg kg-1 po B.I.D, 4 wk) was 121.0 and the “proteinuria (urinary albumin/creatinine ratio), mean” value ([1]; 100 mg kg-1 po Q.D., 0 wk) was 1780.7. For the same compound, the “proteinuria (urinary albumin/creatinine ratio), mean” value ([1]; 100 mg kg-1 po Q.D., 1 wk) was 10042.5, the “proteinuria (urinary albumin/creatinine ratio), mean” value ([1]; 100 mg kg-1 po Q.D., 2 wk) was 9132.2 and the “proteinuria (urinary albumin/creatinine ratio), mean” value ([1]; 100 mg kg-1 po Q.D., 3 wk) was 6691.2. For the same compound, the “proteinuria (urinary albumin/creatinine ratio), mean” value ([1]; 100 mg kg-1 po Q.D., 4 wk) was 3804.5, the “glomerular lesion scores vs vehicle” value ([1]; 100 mg kg−1 once or twice daily) was “significantly reduced” and the death/survival [1, 3] was “prevented death in all mice”. The proteinuria vs vehicle [1, 3] was “significant decrease in proteinuria”, the “Histological score (glomerular lesion), individual mouse” value ([1]; B.I.D. 100 mg kg-1) was 0 and 1 and the Survival rate ([1]; B.I.D. 100 mg kg-1, day 0) was 100%. For the same compound, the Survival rate ([1]; B.I.D. 100 mg kg-1, day 1) was 100%, the Survival rate ([1]; B.I.D. 100 mg kg-1, day 2) was 100% and the Survival rate ([1]; B.I.D. 100 mg kg-1, day 3) was 100%. For the same compound, the Survival rate ([1]; B.I.D. 100 mg kg-1, day 4) was 100%, the Survival rate ([1]; B.I.D. 100 mg kg-1, day 5) was 100% and the Survival rate ([1]; B.I.D. 100 mg kg-1, day 6) was 100%. For the same compound, the Survival rate ([1]; B.I.D. 100 mg kg-1, day 7) was 100%, the Survival rate ([1]; B.I.D. 100 mg kg-1, day 8) was 100% and the Survival rate ([1]; B.I.D. 100 mg kg-1, day 9) was 100%. For the same compound, the Survival rate ([1]; B.I.D. 100 mg kg-1, day 10) was 100%, the Survival rate ([1]; B.I.D. 100 mg kg-1, day 11) was 100% and the Survival rate ([1]; B.I.D. 100 mg kg-1, day 12) was 100%. For the same compound, the Survival rate ([1]; B.I.D. 100 mg kg-1, day 13) was 100%, the Survival rate ([1]; B.I.D. 100 mg kg-1, day 14) was 100% and the Survival rate ([1]; B.I.D. 100 mg kg-1, day 15) was 100%. The Survival rate ([1]; B.I.D. 100 mg kg-1, day 16) was 100%, the Survival rate ([1]; B.I.D. 100 mg kg-1, day 17) was 100% and the Survival rate ([1]; B.I.D. 100 mg kg-1, day 18) was 100%. The Survival rate ([1]; B.I.D. 100 mg kg-1, day 19) was 100%, the Survival rate ([1]; B.I.D. 100 mg kg-1, day 20) was 100% and the Survival rate ([1]; B.I.D. 100 mg kg-1, day 21) was 100%. The Survival rate ([1]; B.I.D. 100 mg kg-1, day 22) was 100%, the Survival rate ([1]; B.I.D. 100 mg kg-1, day 23) was 100% and the Survival rate ([1]; B.I.D. 100 mg kg-1, day 24) was 100%. For the same compound, the Survival rate ([1]; B.I.D. 100 mg kg-1, day 25) was 100%, the Survival rate ([1]; B.I.D. 100 mg kg-1, day 26) was 100% and the Survival rate ([1]; B.I.D. 100 mg kg-1, day 27) was 100%. For the same compound, the Survival rate ([1]; B.I.D. 100 mg kg-1, day 28) was 100%, the “Histological score (glomerular lesion), Mean” value ([1]; B.I.D. 100 mg kg-1) was 0.3333 and the “Histological score (glomerular lesion), individual mouse” value ([1]; Q.D. 100 mg kg-1) was 0 and 2 and 1 and 3. The Survival rate ([1]; Q.D. 100 mg kg-1, day 0) was 100%, the Survival rate ([1]; Q.D. 100 mg kg-1, day 1) was 100% and the Survival rate ([1]; Q.D. 100 mg kg-1, day 2) was 100%. The Survival rate ([1]; Q.D. 100 mg kg-1, day 3) was 100%, the Survival rate ([1]; Q.D. 100 mg kg-1, day 4) was 100% and the Survival rate ([1]; Q.D. 100 mg kg-1, day 5) was 100%. It also gave a Survival rate ([1]; Q.D. 100 mg kg-1, day 6) of 100%, a Survival rate ([1]; Q.D. 100 mg kg-1, day 7) of 100% and a Survival rate ([1]; Q.D. 100 mg kg-1, day 8) of 100%. For the same compound, the Survival rate ([1]; Q.D. 100 mg kg-1, day 9) was 100%, the Survival rate ([1]; Q.D. 100 mg kg-1, day 10) was 100% and the Survival rate ([1]; Q.D. 100 mg kg-1, day 11) was 100%. For the same compound, the Survival rate ([1]; Q.D. 100 mg kg-1, day 12) was 100%, the Survival rate ([1]; Q.D. 100 mg kg-1, day 13) was 100% and the Survival rate ([1]; Q.D. 100 mg kg-1, day 14) was 100%. For the same compound, the Survival rate ([1]; Q.D. 100 mg kg-1, day 15) was 100%, the Survival rate ([1]; Q.D. 100 mg kg-1, day 16) was 100% and the Survival rate ([1]; Q.D. 100 mg kg-1, day 17) was 100%. For the same compound, the Survival rate ([1]; Q.D. 100 mg kg-1, day 18) was 100%, the Survival rate ([1]; Q.D. 100 mg kg-1, day 19) was 100% and the Survival rate ([1]; Q.D. 100 mg kg-1, day 20) was 100%. For the same compound, the Survival rate ([1]; Q.D. 100 mg kg-1, day 21) was 100%, the Survival rate ([1]; Q.D. 100 mg kg-1, day 22) was 100% and the Survival rate ([1]; Q.D. 100 mg kg-1, day 23) was 100%. For the same compound, the Survival rate ([1]; Q.D. 100 mg kg-1, day 24) was 100%, the Survival rate ([1]; Q.D. 100 mg kg-1, day 25) was 100% and the Survival rate ([1]; Q.D. 100 mg kg-1, day 26) was 100%. For the same compound, the Survival rate ([1]; Q.D. 100 mg kg-1, day 27) was 100%, the Survival rate ([1]; Q.D. 100 mg kg-1, day 28) was 100% and the “Histological score (glomerular lesion), Mean” value ([1]; Q.D. 100 mg kg-1) was 1. The “toxic signs in body weights or clinical signs” value ([1]; both treatment groups) was “no clear toxic signs”, the “plasma Concentration, individual mouse” value ([2]; 3 h) was 3240 ng/mL and 2770 ng/mL and the “plasma Concentration, individual mouse” value ([2]; 6 h) was 948 ng/mL and 525 ng/mL. For the same compound, the “plasma Concentration, individual mouse” value ([2]; 24 h) was 10 ng/mL and 7.55 ng/mL, the concentration at 3 h ([2]; 3 h, n = 3, read-out: plasma Concentration, Mean) was 2890 ng/mL and the concentration at 3 h ([2]; 3 h, read-out: plasma Concentration, individual mouse) was 2650 ng/mL. It also gave a concentration at 6 h ([2]; 6 h, n = 3, read-out: plasma Concentration, Mean) of 710 ng/mL, a concentration at 6 h ([2]; 6 h, read-out: plasma Concentration, individual mouse) of 658 ng/mL and a concentration at 24 h ([2]; 24 h, n = 3, read-out: plasma Concentration, Mean) of 8.63 ng/mL. For the same compound, the concentration at 24 h ([2]; 24 h, read-out: plasma Concentration, individual mouse) was 8.33 ng/mL and the oral availability ([2]; single 100 mg kg−1 po) was “orally available”.
